Assay results taken from patent US20250188088A1, “COMPOUND AND USE THEREOF” (ONQUALITY PHARMACEUTICALS CHINA LTD., priority 2022, published 2025).

Tests used:
[1] = Plasma stability, human plasma; assay type: in vitro ADME, Humans; conditions: 37° C.
Procedure: (§1) In addition, the plasma stability of these compounds was determined. Briefly, the determination method comprises the following steps: • 1) Thaw the frozen mixed plasma in a 37° C. water bath before testing, and then centrifuge at 4000 rpm for 5 min to remove blood clots; • 2) Add 98 μL blank plasma into each well of the 96-well reaction plate; • 3) In addition to the blank samples, add 2 μL of 100 μM working solution of test compound into each well; • 3) Incubate the reaction plate at 37° C. and start timing. Incubation times were 0, 10, 30, 60 and 120 minutes, respectively, with two replicate wells at each time point; • 4) Terminate the incubation at the corresponding time point, and add 400 μL of acetonitrile solution containing 200 ng/mL tolbutamide and 200 ng/mL labetalol to precipitate proteins; • 5) Shake each plate for 20 minutes, then centrifuge at 4000 rpm for 20 minutes, transfer 50 μL of supernatant to another 96-well plate, and dilute each sample with 100 μL of pure water; • 6) Analyze the sample by LC-MS/MS.
The experiment results are as follows, and it can be seen from the test results that the selected compounds are easily metabolized to the target compound in human plasma.

[2] = Plasma stability, mini pig plasma; assay type: in vitro ADME, Mini Pigs; conditions: 37° C.
Procedure: as §1

[3] = system: rash caused by monoclonal EGFR inhibitors; test: Treatment of rash caused by monoclonal EGFR inhibitors, topical ointment, rat model; assay type: in vivo; conditions: SD rats
Procedure: An Experiment to Verify the Treatment of Rash Caused by Monoclonal EGFR Inhibitors with Topical Administration of Compounds of the Present Application on a Rat Animal Model After the SD rats were fed and adapted for one week (about 200 g), the rats were divided into 10 rats per group. The hair on the back of rats was gently removed with an electric razor one day before the experiment, and then an administration test was carried out. The EGFR monoclonal antibody solution diluted with normal saline was injected via tail vein twice a week, and the injection rate and time were shown in Table 4; the treatment experiment was started at the time point when rats developed a rash after continuous administration for 1-2 weeks. The experiments were divided into the administration group with the compound of the present application and the control group. During the treatment experiment, monoclonal antibody EGFR inhibitors were injected twice a week. the administration group applied the compound ointment of the present application on the back (about 3 cm*3 cm) of rats every day, and the control group applied blank matrix ointment on the back (about 3 cm*3 cm); after application, the rats were fixed with a fixed cyclinder for about 4 hours, and then the rats were released, with the residual drug at the application site wiped off with clean water, and put back into the cage. […] Table 4 lists the animal experiment combinations of monoclonal antibody EGFR inhibitors and the compound ointment of the present application, as well as the corresponding experiment results (wherein, the value in the control rate column=the number of rats whose rash is milder in the administration group than that in the control group/the total number of rats in the administration group×100%).

[4] = system: rash caused by small molecule EGFR inhibitors; test: Prevention of rash caused by small molecule EGFR inhibitors, topical ointment, rat model; assay type: in vivo, SD rats
Description: An Experiment to Verify the Prevention of Rash Caused by Small Molecule EGFR Inhibitors with Topical Administration of Compounds of the Present Application on a Rat Animal Model A rat animal model was established. After daily gavage of a small molecule EGFR inhibitor to female SD rats for […], the rats developed extensive rashes on their backs several days later (picture shown in FIG. 1). […] Similar to humans, rats developed skin rashes on their faces and bodies after oral administration of small molecule EGFR inhibitors. Both of them had the same etiology and very similar symptoms. Therefore, rats are a proper animal model for mimicking EGFR inhibitor-induced rash. After the SD rats were fed and adapted for one week (about 200 g), the rats were divided into 10 rats per group. The hair on the back of rats was gently removed with an electric razor one day before the experiment, and then an intragastric administration test was carried out. EGFR inhibitors were dissolved in a sterile aqueous solution, and diluted with PBS buffer; the amount of each gavage was not more than 2 mL, and the dosage was shown in Table 1. The experiment comprised the administration group and the control group. After intragastric administration, apply the ointment (type and concentration are shown in Table 1) of the compound used in the present application to the backs (about 3 cm*3 cm) of rats in the administration group; apply blank matrix ointment (about 0.5 g) to the backs (about 3 cm*3 cm) of rats in the control group; fix the rats with a fixed cylinder for about 4 hours after drug application, release the rats after 4 hours, wipe off the residual drug at the application site with clean water, and put them back into the cage. The frequency of intragastric administration of EGFR inhibitors is shown in Table 1, but the compounds of the present application and blank matrix ointment are applied only once a day. The intragastric administration and application test were repeated daily until an obvious rash appeared in the control group. […] Table 1 lists the animal experiment combination of various small molecule EGFR inhibitors and the compound ointment of the present application, as well as the corresponding experiment results (wherein, the value in the control rate column=the number of rats whose rash is milder in the administration group than that in the control group/the total number of rats in the administration group×100%).

[5] = Panitumumab 6 mg/kg twice a week via tail vein, ointment 0.1 wt%, 8 days of drug application
[6] = BPI-7711 60 mg/kg once a day, ointment 5.0 wt% (A14: printed '^ 5%%') once a day, 12 days

SMILES | half-life at 2 µM [1] [min] | % Retained ([1]; 0 min) [%] | % Retained ([1]; 10 min) [%] | % Retained ([1]; 30 min) [%] | % Retained ([1]; 60 min) [%] | % Retained ([1]; 120 min) [%] | half-life at 2 µM [2] [min] | % Retained ([2]; 0 min) [%] | % Retained ([2]; 10 min) [%] | % Retained ([2]; 30 min) [%] | % Retained ([2]; 60 min) [%] | % Retained ([2]; 120 min) [%] | other results
CC(=O)OCCN(C)C(=O)n1ccc2c(N(C)[C@H]3CN(C(=O)CC#N)CC[C@H]3C)ncnc21 [Compound A13] | 32.5 | 100.0 | 77.1 | 48.2 | 28.1 | 7.4 | > 289 | 100.0 | 85.3 | 91.0 | 91.0 | 77.6 | 
C[C@@H]1CCN(C(=O)CC#N)C[C@@H]1N(C)c1ncnc2c1ccn2C(=O)N(C)CCOC(=O)c1ccccc1 [Compound A14] |  |  |  |  |  |  |  |  |  |  |  |  | Control Rate ([3]; Cetuximab 102 mg/kg twice a week via tail vein, ointment 1.0 wt%, 10 days of drug application): 20%; Control Rate ([3]; Cetuximab 102 mg/kg twice a week via tail vein, ointment 5.0 wt%, 10 days of drug application): 60%; Control Rate [3, 5]: 40%; Control Rate ([3]; Panitumumab 6 mg/kg twice a week via tail vein, ointment 3.0 wt%, 8 days of drug application): 70%; Control Rate [4, 6]: 70%; Control Rate ([4]; Dacomitinib 10 mg/kg once a day, ointment 1.0 wt% once a day, 12 days): 50%; Control Rate ([4]; Dacomitinib 10 mg/kg once a day, ointment 5.0 wt% once a day, 12 days): 65%; Control Rate ([4]; Osimertinib 60 mg/kg twice a day, ointment 0.3 wt% once a day, 10 days): 30%; Control Rate ([4]; Osimertinib 60 mg/kg twice a day, ointment 10.0 wt% once a day, 10 days): 80%; Control Rate ([4]; Zorifertinib 60 mg/kg once a day, ointment concentration printed '^ 3%%' (wt %) once a day, 14 days): 50%
C[C@@H]1CCN(C(=O)CC#N)C[C@@H]1N(C)c1ncnc2c1ccn2C(=O)N(C)CCOC(=O)c1ccncc1 [Compound A15] | 4.8 | 100.0 | 20.6 | 0.9 | 0.0 | 0.0 | 71.5 | 100.0 | 88.3 | 75.9 | 57.6 | 30.8 | 
C[C@@H]1CCN(C(=O)CC#N)C[C@@H]1N(C)c1ncnc2c1ccn2C(=O)N(C)CCOC(=O)C1CCN(C)CC1 [Compound A17] | 25 | 100.0 | 83.4 | 50.7 | 20.4 | 3.8 | 66.8 | 100.0 | 100.9 | 76.0 | 52.2 | 30.7 | 
CC(C)C(=O)OCCN(C)C(=O)n1ccc2c(N(C)[C@H]3CN(C(=O)CC#N)CC[C@H]3C)ncnc21 [Compound A19] | 2.6 | 100.0 | 5.1 | 0.0 | 0.0 | 0.0 | 24.3 | 100.0 | 73.0 | 46.2 | 18.5 | 3.3 | 
C[C@@H]1CCN(C(=O)CC#N)C[C@@H]1N(C)c1ncnc2c1ccn2C(=O)N(C)CCOC(=O)C(C)(C)C [Compound A23] | 20.8 | 100.0 | 60.2 | 40.1 | 18.5 | 1.6 | 41.1 | 100.0 | 75.1 | 51.3 | 39.2 | 12.0 | 
CN(CCOC(=O)C1CCCCC1)C(=O)n1ccc2c(-c3cnn([C@@H](CC#N)C4CCCC4)c3)ncnc21 [Compound A39] |  |  |  |  |  |  |  |  |  |  |  |  | Control Rate ([3]; Cetuximab 100 mg/kg twice a week via tail vein, ointment 0.1 wt%, 10 days of drug application): 20%; Control Rate ([3]; Cetuximab 100 mg/kg twice a week via tail vein, ointment 1.0 wt%, 10 days of drug application): 40%; Control Rate ([3]; Cetuximab 100 mg/kg twice a week via tail vein, ointment 5.0 wt%, 10 days of drug application): 80%; Control Rate ([3]; Cetuximab 100 mg/kg twice a week via tail vein, ointment 10.0 wt%, 10 days of drug application): 100%; Control Rate [3, 5]: 20%; Control Rate ([3]; Panitumumab 6 mg/kg twice a week via tail vein, ointment 1.0 wt%, 8 days of drug application): 30%; Control Rate ([3]; Panitumumab 6 mg/kg twice a week via tail vein, ointment 5.0 wt%, 8 days of drug application): 60%; Control Rate ([3]; Panitumumab 6 mg/kg twice a week via tail vein, ointment 10.0 wt%, 8 days of drug application): 70%; Control Rate [4, 6]: 90%; Control Rate ([4]; EAI045 80 mg/kg once a day, ointment 1.0 wt% once a day, 11 days): 20%; Control Rate ([4]; EAI045 80 mg/kg once a day, ointment 5.0 wt% once a day, 11 days): 65%; Control Rate ([4]; Osimertinib 60 mg/kg twice a day, ointment 0.1 wt% once a day, 10 days): 10%; Control Rate ([4]; Osimertinib 60 mg/kg twice a day, ointment 3.0 wt% once a day, 10 days): 30%; Control Rate ([4]; Zorifertinib 60 mg/kg once a day, ointment 5.0 wt% once a day, 14 days): 40%
